Measured values taken from patent US9988379B2, “GPR40 receptor agonist, methods of preparing the same, and pharmaceutical compositions containing the same as an active agent” (LG CHEM, LTD., priority 2012, dated 2018).

Target: T1, human GPR40 (Homo sapiens, UniProt O14842)
T1 construct: expressed in transfected cells; host or cells: CHO-K1
Experiment: Induction of Ca2+ (calcium flux assay) using human GPR40 expression cell line
Type: cell-based
Settings: read-out: EC0.5
Description: Evaluation of the Test Compounds for Induction of Ca^2+ Using Human GPR40 Expression Cell Line
The cell line expressing human GPR40 was generated by transfection of the GPR40 expression vector into CHO-K1 cell, and used in the following calcium flux assay.
The cell line was cultured in cell-culture medium (F-12 (Invitrogen) supplemented with 10% (v/v) FBS (Fetal Bovine Serum; Invitrogen), 0.5 mg/ml Geneticin (Invitrogen) and 1% (v/v) Antibiotic-Antimycotic solution (Invitrogen)) under the condition of 5% CO2 and 37° C. For calcium flux assay, the cells were diluted with the cell-culture medium to a concentration of 5×10^5 cells/ml, and the diluted cell suspension was dispensed in amount of 100 μl/well to a 96-well transparent bottom black polystyrene cell culture plate (Corning) and then cultured for 24 hours. The following concentrations of test compounds were added to these cells, and then the changes in intracellular calcium concentration were measured by FlexStation II384 (Molecular Devices). The following solution was prepared before the measurement.
First, a buffer solution for assay was prepared for use in the manufacture of fluorescent dye solution. This buffer solution was prepared by adding 1M HEPES solution (Invitrogen) to HBSS (Hanks' Balanced Salt Solution) (Invitrogen) and then adding 1M NaOH (Nacalai Tesque) to adjust pH to 7.4. Then the fluorescent dye solution was prepared according to the manufacturer's instruction attached to Calcium 5 Assay Kit (Molecular Devices), and the final DMSO concentration was adjusted to 2%.
The fluorescent dye solution was added in an amount of 100 μl/well to supernatant of the cell culture plate cultured for 24 hours. The plate was cultured for 1 hour under the condition of 5% CO2 and 37° C. so that the fluorescent dye was inserted into the cell.
Test compounds (i.e., the compounds prepared in the Examples) dissolved in dimethyl sulfoxide (DMSO ACROS) were diluted 200-fold in the buffer solution for assay to prepare compound solutions corresponding to the respective concentrations. […] 50 μl of the prepared sample solutions was added to each well of 96-well polypropylene plates (NUNC), and thereby a compound plate was prepared. Finally, the compound plate and the cell culture plate cultured for 1 hour with the fluorescent dye were placed in FlexStation II384.
After the above pre-treatment, the change in the intracellular calcium concentration when each concentration of the test compound solutions was added at 50 μl was measured by FlexStation II^384.
Then, the relative activity values depending on the concentration of the compound were plotted using Prism 4 software (GraphPad) to calculate the EC0.5 value.

T1 sequence (O14842 whole entry): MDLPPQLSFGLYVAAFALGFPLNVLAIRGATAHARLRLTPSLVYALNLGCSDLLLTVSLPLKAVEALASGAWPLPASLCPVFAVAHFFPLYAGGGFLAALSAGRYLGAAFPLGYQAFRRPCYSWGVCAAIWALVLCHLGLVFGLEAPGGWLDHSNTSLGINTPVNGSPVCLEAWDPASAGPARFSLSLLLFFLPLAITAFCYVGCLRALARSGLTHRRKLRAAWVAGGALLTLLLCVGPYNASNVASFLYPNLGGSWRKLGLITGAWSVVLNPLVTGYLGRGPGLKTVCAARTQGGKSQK

Row | Structure (SMILES) | EC50 [nM]
1 | CC(C)n1ccc2ccc(CNc3ccc(CCC(=O)O)cc3)cc21 [Example 1] | 100
2 | O=C(O)CCc1ccc(NCc2ccc3ccn(Cc4ccccc4)c3c2)cc1 [Example 2, 3-{4-[(1-benzyl-1H-indol-6-ylmethyl)-amino]-phenyl}-propanoic acid] | 30
3 | O=C(O)CCc1ccc(NCc2ccc3ccn(-c4ccsc4)c3c2)cc1 [Example 3, 3-{4-[(1-thiophen-3-yl-1H-indol-6-ylmethyl)-amino]-phenyl}-propanoic acid] | 10
4 | O=C(O)CCc1ccc(NCc2ccc3ccn(CCc4ccccc4)c3c2)cc1 [Example 4, 3-{4-[(1-phenethyl-1H-indol-6-ylmethyl)-amino]-phenyl}-propanoic acid] | 50
5 | O=C(O)CCc1ccc(NCc2ccc3c(Cl)cn(Cc4ccccc4)c3c2)cc1 [Example 5, 3-{4-[(1-benzyl-3-chloro-1H-indol-6-ylmethyl)-amino]-phenyl}-propanoic acid] | 30
6 | O=C(O)CCc1ccc(NCc2ccc3c(Cl)c(Cl)n(Cc4ccccc4)c3c2)cc1 [Example 6, 3-{4-[(1-benzyl-2,3-dichloro-1H-indol-6-ylmethyl)-amino]-phenyl}-propanoic acid] | 100
7 | O=C(O)CCc1ccc(NCc2ccc3ccn(Cc4ccccc4)c3c2Cl)cc1 [Example 7, 3-{4-[(1-benzyl-7-chloro-1H-indol-6-ylmethyl)-amino]-phenyl}-propanoic acid] | 20
8 | O=C(O)CCc1ccc(NCc2ccc3ccn(CC4CCCCC4)c3c2Cl)cc1 [Example 11, 3-{4-[(7-chloro-1-cyclohexylmethyl-1H-indol-6-ylmethyl)-amino]-phenyl}-propanoic acid] | 400
9 | O=C(O)CC1COc2cc(OCc3ccc4c(Cl)cn(Cc5ccccc5)c4c3)ccc21 (centres unmarked) [Example 12, [6-(1-benzyl-3-chloro-1H-indol-6-ylmethoxy)-2,3-dihydro-benzofuran-3-yl]-acetic acid] | 160
10 | O=C(O)CCc1ccc(OCc2ccc3ccn(CC4CCCCC4)c3c2)cc1 [Example 19, 3-[4-(1-cyclohexylmethyl-1H-indol-6-ylmethoxy)-phenyl]-propanoic acid] | 400
11 | Cn1cc(Cc2ccccc2)c2cc(COc3ccc(CCC(=O)O)cc3)ccc21 [Example 20, 3-[4-(3-benzyl-1-methyl-1H-indol-5-ylmethoxy)-phenyl]-propanoic acid] | 70
12 | Cc1cc(F)ccc1-n1ccc2ccc(COc3ccc4c(c3)OCC4CC(=O)O)cc21 (centres unmarked) [Example 24, {6-[1-(4-fluoro-2-methyl-phenyl)-1H-indol-6-ylmethoxy]-2,3-dihydro-benzofuran-3-yl}-acetic acid] | 20
13 | CC#C[C@@H](CC(=O)O)c1ccc(OCc2cccc3c2ccn3Cc2ccccc2)cc1 [Example 31, (S)-3-[4-(1-benzyl-1H-indol-4-ylmethoxy)-phenyl]-hex-4-ynoic acid] | 30
14 | CC#C[C@@H](CC(=O)O)c1ccc(OCc2cccc3c2ccn3-c2ccc(F)cc2C)cc1 [Example 32, (S)-3-{4-[1-(4-fluoro-2-methyl-phenyl)-1H-indol-4-ylmethoxy]-phenyl}-hex-4-ynoic acid] | 40
15 | CC#C[C@@H](CC(=O)O)c1ccc(OCc2ccc3cc(CCOC)n(Cc4ccccc4)c3c2)cc1 [Example 34, (S)-3-{4-[1-benzyl-2-(2-methoxy-ethyl)-1H-indol-6-ylmethoxy]-phenyl}-hex-4-ynoic acid] | 40
16 | CC#C[C@@H](CC(=O)O)c1ccc(OCc2ccc3ccn(Cc4cccc(CS(C)(=O)=O)c4)c3c2C)cc1 [Example 35, (S)-3-{4-[1-(3-methanesulfonylmethyl-benzyl)-7-methyl-1H-indol-6-ylmethoxy]-phenyl}-hex-4-ynoic acid] | 10

Next, values leading:

Row | EC50 [nM] | Structure (SMILES)
17 | ≥ 500 | O=C(O)CCc1ccc(NCc2ccc3ccn(-c4ccsc4)c3c2Cl)cc1 [Example 8, 3-{4-[(7-chloro-1-thiophen-3-yl-1H-indol-6-ylmethyl)-amino]-phenyl}-propanoic acid]
18 | 300 | O=C(O)CCc1ccc(NCc2ccc3ccn(-c4ccc(F)cc4)c3c2Cl)cc1 [Example 9, 3-(4-{[7-chloro-1-(4-fluoro-phenyl)-1H-indol-6-ylmethyl]-amino}-phenyl)-propanoic acid]
19 | 700 | O=C(O)CCc1ccc(NCc2ccc3ccn(-c4ccc(F)cc4)c3c2)cc1 [Example 10, 3-(4-{[1-(4-fluoro-phenyl)-1H-indol-6-ylmethyl]-amino}-phenyl)-propanoic acid]
20 | 20 | O=C(O)CCc1ccc(OCc2ccc3ccn(-c4ccsc4)c3c2)cc1 [Example 13, 3-[4-(1-thiophen-3-yl-1H-indol-6-ylmethoxy)-phenyl]-propanoic acid]
21 | 30 | Cc1c(COc2ccc(CCC(=O)O)cc2)ccc2ccn(-c3ccc(F)cc3)c12 [Example 14, 3-{4-[1-(4-fluoro-phenyl)-7-methyl-1H-indol-6-ylmethoxy]-phenyl}-propanoic acid]
22 | 10 | Cc1c(COc2ccc(CCC(=O)O)cc2)ccc2ccn(Cc3ccccc3)c12 [Example 15, 3-[4-(1-benzyl-7-methyl-1H-indol-6-ylmethoxy)-phenyl]-propanoic acid]
23 | 20 | Cc1c(COc2ccc(CCC(=O)O)cc2)ccc2ccn(-c3ccsc3)c12 [Example 16, 3-[4-(7-methyl-1-thiophen-3-yl-1H-indol-6-ylmethoxy)-phenyl]-propanoic acid]
24 | 7 | Cc1cc(F)ccc1-n1ccc2ccc(COc3ccc(CCC(=O)O)cc3)cc21 [Example 17, 3-{4-[1-(4-fluoro-2-methyl-phenyl)-1H-indol-6-ylmethoxy]-phenyl}-propanoic acid]
25 | 90 | O=C(O)CCc1ccc(OCc2ccc3ccn(Cc4ccccc4)c3c2Cl)cc1 [Example 18, 3-[4-(1-benzyl-7-chloro-1H-indol-6-ylmethoxy)-phenyl]-propanoic acid]
26 | ≥ 500 | Cc1ccccc1-c1cn(C)c2ccc(COc3ccc(CCC(=O)O)cc3)cc12 [Example 21, 3-[4-(1-methyl-3-o-tolyl-1H-indol-5-ylmethoxy)-phenyl]-propanoic acid]
27 | 40 | Cc1cc(F)ccc1-n1cc(Cl)c2ccc(COc3ccc(CCC(=O)O)cc3)cc21 [Example 22, 3-{4-[3-chloro-1-(4-fluoro-2-methyl-phenyl)-1H-indol-6-ylmethoxy)-phenyl]-propanoic acid]
28 | 4 | Cc1cc(F)ccc1-n1ccc2cc(F)c(COc3ccc(CCC(=O)O)cc3)cc21 [Example 23, 3-{4-[5-fluoro-1-(4-fluoro-2-methyl-phenyl)-1H-indol-6-ylmethoxy)-phenyl]-propanoic acid]
29 | 20 | CC#C[C@@H](CC(=O)O)c1ccc(OCc2ccc3ccn(Cc4ccccc4)c3c2C)cc1 [Example 25, (S)-3-[4-(1-benzyl-7-methyl-1H-indol-6-ylmethoxy)-phenyl]-hex-4-ynoic acid]
30 | 20 | CC#C[C@@H](CC(=O)O)c1ccc(OCc2ccc3ccn(-c4ccc(F)cc4C)c3c2)cc1 [Example 26, (S)-3-{4-[1-(4-fluoro-2-methyl-phenyl)-1H-indol-6-ylmethoxy]-phenyl}-hex-4-ynoic acid]
31 | 30 | CC#C[C@@H](CC(=O)O)c1ccc(OCc2ccc3ccn(Cc4ccc(S(C)(=O)=O)cc4)c3c2C)cc1 [Example 27, (S)-3-{4-[1-(4-methanesulfonyl-benzyl)-7-methyl-1H-indol-6-ylmethoxy]-phenyl}-hex-4-ynoic acid]
32 | 10 | CC#C[C@@H](CC(=O)O)c1ccc(OCc2ccc3ccn(Cc4ccc(OC)cc4)c3c2C)cc1 [Example 28, (S)-3-{4-[1-(4-methoxy-benzyl)-7-methyl-1H-indol-6-ylmethoxy]-phenyl}-hex-4-ynoic acid]
33 | 70 | CC#C[C@@H](CC(=O)O)c1ccc(OCc2ccc3ccn(Cc4ccc(C(F)(F)F)cc4)c3c2C)cc1 [Example 29, (S)-3-{4-[7-methyl-1-(4-trifluoromethyl-benzyl)-1H-indol-6-ylmethoxy]-phenyl}-hex-4-ynoic acid]
34 | 40 | CC#C[C@@H](CC(=O)O)c1ccc(OCc2ccc3ccn(Cc4cccc(COC)c4)c3c2C)cc1 [Example 30, (S)-3-{4-[1-(3-methoxymethyl-benzyl)-7-methyl-1H-indol-6-ylmethoxy]-phenyl}-hex-4-ynoic acid]
35 | 20 | CC#C[C@@H](CC(=O)O)c1ccc(OCc2ccc3ccn(Cc4c(F)cccc4F)c3c2C)cc1 [Example 33, (S)-3-{4-[1-(2,6-difluoro-benzyl)-7-methyl-1H-indol-6-ylmethoxy]-phenyl}-hex-4-ynoic acid]
